Reference: patent US9771369B2, “Compounds and methods for kinase modulation, and indications therefor” (Plexxikon Inc., priority 2014, dated 2017)

Legend:
[1] = target: c-kit mutant D816V (Homo sapiens (Human), UniProt P10721, D816V/DEL694-753); assay: c-Kit mutant D816V biochemical assay (AlphaScreen kinase activity)
Outline: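 Recombinant His-tagged c-Kit D816V kinase domain (residues 551-934, insert 694-753 deleted, E. coli-expressed) phosphorylating 30 nM biotin-(E4Y)10 with 10 μM ATP, HEPES pH 7.2, Mg/Mn, 5% DMSO; 30 min, room temperature. Phosphorylation detected by AlphaScreen (streptavidin donor/PY30 acceptor beads); IC50 from 8-point 1:3 series.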

[2] = test system: BaF3-FL KIT D816V or BaF3-FL KIT V560G/D816V cell line; assay: Cell-based assays of c-Kit mutant kinase activity (cell proliferation, ATPlite); details: at least one of the c-kit cell assays of Example 7
Outline: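 BaF3 cells dependent on transfected full-length human KIT D816V or V560G/D816V (pCI-Neo, CMV promoter) were seeded at 1×10^4 cells/well and exposed to 8-point 1:3 dilutions from 10 μM top (0.2% DMSO) for three days at 37° C. ATPlite luminescence gave cell number; IC50 from concentration-response.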

Sequence of c-kit mutant D816V (P10721 other isoform, or with tags, fused parts or gaps D816V/del 694-753): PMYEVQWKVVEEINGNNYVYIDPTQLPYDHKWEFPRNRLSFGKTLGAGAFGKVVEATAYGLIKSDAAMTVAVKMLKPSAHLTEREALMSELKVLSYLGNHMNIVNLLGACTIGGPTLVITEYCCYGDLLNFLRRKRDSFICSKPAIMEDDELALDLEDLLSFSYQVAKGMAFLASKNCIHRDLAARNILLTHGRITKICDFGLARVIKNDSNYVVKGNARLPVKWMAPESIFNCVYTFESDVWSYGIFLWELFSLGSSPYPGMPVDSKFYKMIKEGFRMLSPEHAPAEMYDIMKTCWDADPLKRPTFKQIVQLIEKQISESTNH

| Compound | IC50 [1] [µM] | IC50 [2] [nM] |
| --- | --- | --- |
| CCOc1ccc(-c2[nH]c(C3CCN(c4ncnc5[nH]c(-c6ccc(F)cc6)cc45)CC3)nc2C)cc1C [P-3065, 4-[4-[5-(4-ethoxy-3-methyl-phenyl)-4-methyl-1H-imidazol-2-yl]-1-piperidyl]-6-(4-fluorophenyl)-7H-pyrrolo[2,3-d]pyrimidine] | 0.0001 to 1 | < 10000 |
| CCOc1ccc(-c2[nH]c(C3CCN(c4ncnc5[nH]c(-c6ccc(C#N)cc6)cc45)CC3)nc2C)cc1C [P-3066, 4-[4-[4-[5-(4-ethoxy-3-methyl-phenyl)-4-methyl-1H-imidazol-2-yl]-1-piperidyl]-7H-pyrrolo[2,3-d]pyrimidin-6-yl]benzonitrile] | 0.0001 to 1 | < 10000 |
| CCOc1ccc(-c2[nH]c(C3CCN(c4ncnc5[nH]c(-c6ccnc(OC)c6)cc45)CC3)nc2C)cc1C [P-3067, 4-[4-[5-(4-ethoxy-3-methyl-phenyl)-4-methyl-1H-imidazol-2-yl]-1-piperidyl]-6-(2-methoxy-4-pyridyl)-7H-pyrrolo[2,3-d]pyrimidine] | 0.0001 to 1 | < 10000 |
| Cc1nc(C2CCN(c3ncnc4[nH]c(-c5ccc(F)cc5)cc34)CC2)[nH]c1-c1ccc2c(c1)OCO2 [P-3068, 4-[4-[5-(1,3-benzodioxol-5-yl)-4-methyl-1H-imidazol-2-yl]-1-piperidyl]-6-(4-fluorophenyl)-7H-pyrrolo[2,3-d]pyrimidine] | 0.0001 to 1 | < 10000 |
| Cc1nc(C2CCN(c3ncnc4[nH]c(-c5ccc(C#N)cc5)cc34)CC2)[nH]c1-c1ccc2c(c1)OCO2 [P-3069, 4-[4-[4-[5-(1,3-benzodioxol-5-yl)-4-methyl-1H-imidazol-2-yl]-1-piperidyl]-7H-pyrrolo[2,3-d]pyrimidin-6-yl]benzonitrile] | 0.0001 to 1 | < 10000 |
| COc1cc(-c2cc3c(N4CCC(c5nc(C)c(-c6ccc7c(c6)OCO7)[nH]5)CC4)ncnc3[nH]2)ccn1 [P-3070, 4-[4-[5-(1,3-benzodioxol-5-yl)-4-methyl-1H-imidazol-2-yl]-1-piperidyl]-6-(2-methoxy-4-pyridyl)-7H-pyrrolo[2,3-d]pyrimidine] | 0.0001 to 1 | < 10000 |
| CC(=O)Nc1cccc(-c2cc3c(N4CCC(c5nc(C)c(-c6ccccc6)[nH]5)CC4)ncnc3[nH]2)c1 [P-3071, N-[3-[4-[4-(4-methyl-5-phenyl-1H-imidazol-2-yl)-1-piperidyl]-7H-pyrrolo[2,3-d]pyrimidin-6-yl]phenyl]acetamide] | 0.0001 to 1 | < 10000 |
| COc1ccc(-c2cc3c(N4CCC(c5nc(C)c(-c6ccccc6)[nH]5)CC4)ncnc3[nH]2)cn1 [P-3072, 6-(6-methoxy-3-pyridyl)-4-[4-(4-methyl-5-phenyl-1H-imidazol-2-yl)-1-piperidyl]-7H-pyrrolo[2,3-d]pyrimidine] | 0.0001 to 1 | < 10000 |
| Cc1nn(C)cc1-c1cc2c(N3CCC(c4nc(C)c(-c5ccccc5)[nH]4)CC3)ncnc2[nH]1 [P-3073, 6-(1,3-dimethylpyrazol-4-yl)-4-[4-(4-methyl-5-phenyl-1H-imidazol-2-yl)-1-piperidyl]-7H-pyrrolo[2,3-d]pyrimidine] | 0.0001 to 1 | < 10000 |
| Cc1ccc(-c2cc3c(N4CCC(c5nc(C)c(-c6ccccc6)[nH]5)CC4)ncnc3[nH]2)cn1 [P-3074, 4-[4-(4-methyl-5-phenyl-1H-imidazol-2-yl)-1-piperidyl]-6-(6-methyl-3-pyridyl)-7H-pyrrolo[2,3-d]pyrimidine] | 0.0001 to 1 | < 10000 |
| CCOc1cc(-c2cc3c(N4CCC(c5nc(C)c(-c6ccccc6)[nH]5)CC4)ncnc3[nH]2)ccn1 [P-3075, 6-(2-ethoxy-4-pyridyl)-4-[4-(4-methyl-5-phenyl-1H-imidazol-2-yl)-1-piperidyl]-7H-pyrrolo[2,3-d]pyrimidine] | 0.0001 to 1 | < 10000 |
| Cc1nc(C2CCN(c3ncnc4[nH]c(-c5ccnc(N6CCOCC6)c5)cc34)CC2)[nH]c1-c1ccccc1 [P-3076, 4-[4-[4-[4-(4-methyl-5-phenyl-1H-imidazol-2-yl)-1-piperidyl]-7H-pyrrolo[2,3-d]pyrimidin-6-yl]-2-pyridyl]morpholine] | 0.0001 to 1 | < 10000 |
| Cc1nc(C2CCN(c3ncnc4[nH]c(-c5ccnc(N6CCC(C)CC6)c5)cc34)CC2)[nH]c1-c1ccccc1 [P-3077, 4-[4-(4-methyl-5-phenyl-1H-imidazol-2-yl)-1-piperidyl]-6-[2-(4-methyl-1-piperidyl)-4-pyridyl]-7H-pyrrolo[2,3-d]pyrimidine] | 0.0001 to 1 | < 10000 |
| Cc1nc(C2CCN(c3ncnc4[nH]c(-c5ccnc(OC(C)C)c5)cc34)CC2)[nH]c1-c1ccccc1 [P-3078, 6-(2-isopropoxy-4-pyridyl)-4-[4-(4-methyl-5-phenyl-1H-imidazol-2-yl)-1-piperidyl]-7H-pyrrolo[2,3-d]pyrimidine] | 0.0001 to 1 | < 10000 |
| Cc1nc(C2CCN(c3ncnc4[nH]c(-c5ccnc(N6CCCC6)c5)cc34)CC2)[nH]c1-c1ccccc1 [P-3079, 4-[4-(4-methyl-5-phenyl-1H-imidazol-2-yl)-1-piperidyl]-6-(2-pyrrolidin-1-yl-4-pyridyl)-7H-pyrrolo[2,3-d]pyrimidine] | 0.0001 to 1 | < 10000 |
| Cc1nc(C2CCN(c3ncnc4[nH]c(-c5cccc(OC(F)(F)F)c5)cc34)CC2)[nH]c1-c1ccccc1 [P-3080, 4-[4-(4-methyl-5-phenyl-1H-imidazol-2-yl)-1-piperidyl]-6-[3-(trifluoromethoxy)phenyl]-7H-pyrrolo[2,3-d]pyrimidine] | 0.0001 to 1 | < 10000 |
| Cc1nc(C2CCN(c3ncnc4[nH]c(-c5cccc(F)c5)cc34)CC2)[nH]c1-c1ccccc1 [P-3081, 6-(3-fluorophenyl)-4-[4-(4-methyl-5-phenyl-1H-imidazol-2-yl)-1-piperidyl]-7H-pyrrolo[2,3-d]pyrimidine] | 0.0001 to 1 | < 10000 |
| Cc1nc(C2CCN(c3ncnc4[nH]c(-c5cccc(NS(C)(=O)=O)c5)cc34)CC2)[nH]c1-c1ccccc1 [P-3083, N-[3-[4-[4-(4-methyl-5-phenyl-1H-imidazol-2-yl)-1-piperidyl]-7H-pyrrolo[2,3-d]pyrimidin-6-yl]phenyl]methane sulfonamide] | 0.0001 to 1 | < 10000 |
| Cc1nc(C2CCN(c3ncnc4[nH]c(-c5ccc(F)cc5)cc34)CC2)[nH]c1-c1ccc2c(c1)OCCO2 [P-3084, 4-[4-[5-(2,3-dihydro-1,4-benzodioxin-6-yl)-4-methyl-1H-imidazol-2-yl]-1-piperidyl]-6-(4-fluorophenyl)-7H-pyrrolo[2,3-d]pyrimidine] | 0.0001 to 1 | < 10000 |
| Cc1nc(C2CCN(c3ncnc4[nH]c(-c5ccc(F)cc5)cc34)CC2)[nH]c1-c1ccc(OC(F)(F)F)cc1 [P-3085, 6-(4-fluorophenyl)-4-[4-[4-methyl-5-[4-(trifluoromethoxy)phenyl]-1H-imidazol-2-yl]-1-piperidyl]-7H-pyrrolo[2,3-d]pyrimidine] | 0.0001 to 1 | < 10000 |
| Cc1nc(C2CCN(c3ncnc4[nH]c(-c5ccc(C#N)cc5)cc34)CC2)[nH]c1-c1ccc(OC(F)(F)F)cc1 [P-3086, 4-[4-[4-[4-methyl-5-[4-(trifluoromethoxy)phenyl]-1H-imidazol-2-yl]-1-piperidyl]-7H-pyrrolo[2,3-d]pyrimidin-6-yl]benzonitrile] | 0.0001 to 1 | < 10000 |
| COc1cc(-c2cc3c(N4CCC(c5nc(C)c(-c6ccc(OC(F)(F)F)cc6)[nH]5)CC4)ncnc3[nH]2)ccn1 [P-3087, 6-(2-methoxy-4-pyridyl)-4-[4-[4-methyl-5-[4-(trifluoromethoxy)phenyl]-1H-imidazol-2-yl]-1-piperidyl]-7H-pyrrolo[2,3-d]pyrimidine] | 0.0001 to 1 | < 10000 |
| COc1cc(-c2cc3c(N4CCC(c5nc(C)c(-c6ccc(C)cc6)[nH]5)CC4)ncnc3[nH]2)ccn1 [P-3088, 6-(2-methoxy-4-pyridyl)-4-[4-[4-methyl-5-(p-tolyl)-1H-imidazol-2-yl]-1-piperidyl]-7H-pyrrolo[2,3-d]pyrimidine] | 0.0001 to 1 | < 10000 |
| COc1ccc(-c2[nH]c(C3(C)CCN(c4ncnc5[nH]c(-c6ccc(C#N)nc6)cc45)CC3)nc2C)cc1C [P-3250, 5-[4-[4-[5-(4-methoxy-3-methyl-phenyl)-4-methyl-1H-imidazol-2-yl]-4-methyl-1-piperidyl]-7H-pyrrolo[2,3-d]pyrimidin-6-yl]pyridine-2-carbonitrile] | 0.0001 to 1 | < 10000 |
| CCOc1ccc(-c2[nH]c(C3(C)CCN(c4ncnc5[nH]c(-c6ccc(C#N)nc6)cc45)CC3)nc2C)cc1 [P-3251, 5-[4-[4-[5-(4-ethoxyphenyl)-4-methyl-1H-imidazol-2-yl]-4-methyl-1-piperidyl]-7H-pyrrolo[2,3-d]pyrimidin-6-yl]pyridine-2-carbonitrile] | 0.0001 to 1 | < 10000 |
| Cc1nc(C2(C)CCN(c3ncnc4[nH]c(-c5ccc(NS(C)(=O)=O)cc5)cc34)CC2)[nH]c1-c1ccc(C(F)F)cc1 [P-3252, N-[4-[4-[4-[5-[4-(difluoromethyl)phenyl]-4-methyl-1H-imidazol-2-yl]-4-methyl-1-piperidyl]-7H-pyrrolo[2,3-d]pyrimidin-6-yl]phenyl]methanesulfonamide] | 0.0001 to 1 | < 10000 |
| Cc1nc(C2(C)CCN(c3ncnc4[nH]c(-c5ccc(C(N)=O)cc5)cc34)CC2)[nH]c1-c1ccc(OC(F)F)cc1 [P-3253, 4-[4-[4-[5-[4-(difluoromethoxy)phenyl]-4-methyl-1H-imidazol-2-yl]-4-methyl-1-piperidyl]-7H-pyrrolo[2,3-d]pyrimidin-6-yl]benzamide] | 0.0001 to 1 | < 10000 |
